Where two headings read alike, the source gives them in different places.

In assay [1] the target is T1, Intrinsic factor (Homo sapiens, UniProt P27352).
T1 construct: purchased Xeragenx LLC XGX-003; host or cells: Arabidopsis (transgenic plant)
Kind of assay: IF binding, chase experiment with 57Co radiolabeled B12. The conditions noted are these: read-out: binding affinity to IF.
Excerpt: Peptides were purchased through CSBio (Menlo Park, Calif.) and all materials were purchased through Sigma-Aldrich unless stated otherwise. Apo-IF was supplied by Xeragenx LLC (cat no: XGX-003). […] IF used in these assays was produced in the plant Arabidopsis in the apo-form and of high purity

In assay [2] the target is T1, Intrinsic factor. The conditions noted are these: general statement in description; read-out: IF binding affinity (Kd); cited from earlier work.

T1 sequence (P27352 19-417): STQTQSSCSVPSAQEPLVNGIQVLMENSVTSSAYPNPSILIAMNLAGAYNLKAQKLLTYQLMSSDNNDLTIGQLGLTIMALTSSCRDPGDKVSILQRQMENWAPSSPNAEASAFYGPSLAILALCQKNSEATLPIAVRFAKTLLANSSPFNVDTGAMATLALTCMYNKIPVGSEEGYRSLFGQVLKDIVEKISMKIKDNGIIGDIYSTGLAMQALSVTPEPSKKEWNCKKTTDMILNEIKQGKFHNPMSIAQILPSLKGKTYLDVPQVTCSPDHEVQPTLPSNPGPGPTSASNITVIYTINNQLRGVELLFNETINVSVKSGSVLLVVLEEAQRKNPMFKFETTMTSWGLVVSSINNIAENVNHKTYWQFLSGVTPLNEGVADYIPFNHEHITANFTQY

For cyanocobalamin [Compound B12], the Kd on Intrinsic factor [1] is 0.12 nM; on Intrinsic factor [2], ~0.001 nM.

Source of the values: US11771772B2, “Glycemic control using intrinsic factor bound to a vitamin B12 conjugate of a glucagon-like peptide-1 receptor agonist” (Syracuse University, priority 2015, dated 2023).
